Assay results: paper PMC7327383, “The affinity and selectivity of α‐adrenoceptor antagonists, antidepressants, and antipsychotics for the human α1A, α1B, and α1D‐adrenoceptors” (Pharmacology Research & Perspectives, 2020)
Where two headings read alike, the source gives them in different places.

Key:
[1] = molecular target: T1, human α1A-adrenoceptor (Homo sapiens, UniProt P35348); assay: [3H]prazosin whole-cell competition binding, CHO-α1A cells; conditions: for Selectivity ratio α1A vs α1B / Selectivity ratio α1A vs α1D: ratio of KD values, 1.0 under vs = none; for Selectivity ratio α1A vs α1B: printed under α1A = higher α1A affinity; for Kd: read-out: Log KD α1A (converted); for Selectivity ratio α1A vs α1D: higher α1A affinity
T1 construct: CHO cells stably expressing either the full‐length human α1A, α1B, or α1D‐adrenoceptor
T1 sequence (P35348 1-466): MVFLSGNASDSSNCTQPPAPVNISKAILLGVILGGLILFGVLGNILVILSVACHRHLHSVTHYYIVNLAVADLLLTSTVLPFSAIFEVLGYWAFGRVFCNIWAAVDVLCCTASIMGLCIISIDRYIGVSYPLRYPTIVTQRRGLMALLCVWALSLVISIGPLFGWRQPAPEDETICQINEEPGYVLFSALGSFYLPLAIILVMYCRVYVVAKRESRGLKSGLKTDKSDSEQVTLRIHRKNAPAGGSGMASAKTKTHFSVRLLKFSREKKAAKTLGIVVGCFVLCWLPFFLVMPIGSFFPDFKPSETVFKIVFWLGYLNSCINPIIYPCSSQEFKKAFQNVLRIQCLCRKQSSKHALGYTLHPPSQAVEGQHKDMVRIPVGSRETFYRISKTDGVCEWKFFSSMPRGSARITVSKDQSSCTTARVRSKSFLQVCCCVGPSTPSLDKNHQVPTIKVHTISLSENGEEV

[2] = molecular target: T2, full-length human α1D-adrenoceptor (Homo sapiens, UniProt P25100); assay: [3H]prazosin whole-cell competition binding, CHO-α1D cells; conditions: for Log KD α1D site 2: low-affinity component of two-component curve; for Selectivity ratio α1A vs α1D / Selectivity ratio α1B vs α1D: ratio of KD values, higher α1D affinity (site 1 KD)
T2 sequence (P25100 1-572): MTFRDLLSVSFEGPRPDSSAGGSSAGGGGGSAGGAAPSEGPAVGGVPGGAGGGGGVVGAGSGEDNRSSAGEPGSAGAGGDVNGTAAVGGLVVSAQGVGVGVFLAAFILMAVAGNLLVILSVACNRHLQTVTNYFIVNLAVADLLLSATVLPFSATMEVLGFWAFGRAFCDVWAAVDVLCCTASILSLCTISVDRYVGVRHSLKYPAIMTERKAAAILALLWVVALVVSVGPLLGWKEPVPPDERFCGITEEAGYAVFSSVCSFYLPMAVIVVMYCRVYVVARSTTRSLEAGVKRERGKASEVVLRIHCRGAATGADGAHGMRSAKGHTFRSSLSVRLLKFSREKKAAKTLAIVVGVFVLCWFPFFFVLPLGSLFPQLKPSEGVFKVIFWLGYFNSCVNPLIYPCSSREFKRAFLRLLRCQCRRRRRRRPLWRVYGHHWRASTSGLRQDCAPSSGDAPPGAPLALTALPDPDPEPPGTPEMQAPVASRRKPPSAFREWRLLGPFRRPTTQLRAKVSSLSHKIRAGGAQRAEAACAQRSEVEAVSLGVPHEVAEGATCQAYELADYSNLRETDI

[3] = molecular target: T3, human α1B-adrenoceptor (Homo sapiens, UniProt P35368); assay: [3H]prazosin whole-cell competition binding, CHO-α1B cells; conditions: for Kd: read-out: Log KD α1B (converted); for Selectivity ratio α1B vs α1D: ratio of KD values, higher α1B affinity, 1.0 under vs = none
T3 construct: CHO cells stably expressing either the full‐length human α1A, α1B, or α1D‐adrenoceptor
T3 sequence (P35368 1-520): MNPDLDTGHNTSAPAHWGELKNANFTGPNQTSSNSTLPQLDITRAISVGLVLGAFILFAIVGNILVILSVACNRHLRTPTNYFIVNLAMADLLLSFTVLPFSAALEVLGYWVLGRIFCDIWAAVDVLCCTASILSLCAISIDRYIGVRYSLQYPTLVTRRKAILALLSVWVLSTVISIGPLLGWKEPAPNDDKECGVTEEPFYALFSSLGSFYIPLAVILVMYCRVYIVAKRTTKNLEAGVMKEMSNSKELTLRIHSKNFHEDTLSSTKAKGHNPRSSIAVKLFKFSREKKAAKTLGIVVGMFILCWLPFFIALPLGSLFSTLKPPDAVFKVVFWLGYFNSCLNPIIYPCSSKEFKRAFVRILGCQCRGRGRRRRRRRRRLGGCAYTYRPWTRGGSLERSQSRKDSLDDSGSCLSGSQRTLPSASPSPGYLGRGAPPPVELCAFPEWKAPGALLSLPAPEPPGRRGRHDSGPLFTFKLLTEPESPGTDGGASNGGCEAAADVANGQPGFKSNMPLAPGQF

[4] = ratio, 1 = no selectivity for a subtype over another
[5] = single-component inhibition curve, given as log KD (negative), mean ± SE mean
[6] = percentage of inhibition through first component, control
[7] = two-component inhibition curve, proportion of site 1
[8] = selectivity ratio, 1 = no selectivity for a given receptor subtype over another
[9] = Log KD α1D, single-component inhibition curve, given as log KD (negative), mean ± SE mean
[10] = app: top concentration inhibited most but not all specific binding, curve extrapolated

Row | Compound | Selectivity ratio α1A vs α1B [1] [fold] | Kd [1, 5] [nM] | Selectivity ratio α1B vs α1D [2] [fold] | selectivity α1B vs α1D [3, 4] | Kd [3, 5] [nM] | Selectivity ratio α1A vs α1D [1] [fold] | Kd [2, 9] [nM] | further results
1 | CC(C)(Cc1c[nH]c2ccc(Cl)cc12)NCCOc1ccccc1OCC1CC1.Cl [RS17053, N‐[2‐(2‐cyclopropylmethoxyphenoxy)ethyl]‐5‐chloro‐alpha, alpha‐dimethyl‐1H‐indole‐3‐ethanamine hydrochloride] | 52 | 4.68 | 1.7 | 1.7 | 245 | 31 | – | Kd [2]: 145 nM
2 | COc1ccccc1N1CCN(CCCNc2c(C)c(=O)n(C)c(=O)n2C)CC1 [5-methyl-urapidil] | – | – | – | – | – | – | – | Log KD α1A [1]: -8.23 ± 0.05; selectivity α1A vs 1D [1]: 417; selectivity α1A vs α1B [1]: 148; Log KD α1D [2]: -5.61 ± 0.07; Log KD α1B [3]: -6.06 ± 0.04; selectivity α1B vs α1D [3]: 2.8
3 | Cn1cc(C(F)(F)F)nc1-c1ccc(OCC(O)CNCCOc2ccc(O)c(C(N)=O)c2)cc1 (centres unmarked) [CGP20712A] | >8.5 | 11700 | >9.1 | – | – | – | – | Kd ([2]; Log KD α1D (apparent), app: top concentration inhibited most but not all specific binding, curve extrapolated): 11000 nM; Selectivity ratio α1A vs α1D [2]: 1.1 fold; IC50 ([3]; read-out: Log IC50 α1B (converted)): > 100000 nM
4 | CC(C)(C)NCC(O)COc1cccc2[nH]c(C#N)cc12 (centres unmarked) [Cyanopindolol] | 4.8 | 2570 | 3.1 | 3.1 | 12300 | 1.5 | – | Kd [2]: 3980 nM

The next lines start with results.

Row | Selectivity ratio α1A vs α1B [1] [fold] | Kd [1, 5] [nM] | Selectivity ratio α1B vs α1D [2] [fold] | selectivity α1B vs α1D [3, 4] | Kd [3, 5] [nM] | Selectivity ratio α1A vs α1D [1] [fold] | Kd [2, 9] [nM] | Compound | further results
5 | 2.8 | 138 | 28 | 28 | 389 | – | – | O=C1NCN(c2ccccc2)C12CCN(CC1COc3ccccc3O1)CC2 (centres unmarked) [Spiroxatrine] | selectivity α1A vs 1D [1, 4]: 10; Kd ([2]; Log KD α1D site 1, high-affinity component of two-component curve, control, used for selectivity): 13.8 nM; Log KD α1D site 2 ([2]; control): −5.84 ± 0.31; % site 1 α1D [2, 6]: 61.9 ± 4.0% site 1; Selectivity ratio α1A vs α1D [2]: 10 fold; % site 1 α1D [2, 7]: -7.86 ± 0.13 -5.84 ± 0.31 61.9 ± 4.0% site 1
6 | 13 | 26.9 | 1.0 | 1.0 | 347 | 13 | 355 | CC(C)(Cc1c[nH]c2ccccc12)NCC(O)COc1ccccc1C#N (centres unmarked) [Bucindolol] | selectivity α1A vs 1D [1, 4]: 13.2; selectivity α1A vs α1B [1, 4]: 13; selectivities α1A vs α1B [1, 8]: 13; selectivities α1A vs α1D [1, 8]: 13; α1A affinity, fold lower than that for the human β1 adrenoceptor ([1]; β1 affinity from ref 53): 54 fold; α1A affinity, fold lower than that for the β2 adrenoceptor ([1]; β2 affinity from refs 52, 53): 263 fold
7 | 16 | 3390 | 5.0 | 5.0 | 53700 | 3.2 | 10700 | CCC1(C2=NCCN2)Cc2ccccc2O1 (centres unmarked) [Efaroxan] | –
8 | 3.4 | – | – | – | – | 2.9 | – | O=C1c2ccccc2CCC1CNCCc1ccc(O)cc1 (centres unmarked) [HEAT] | Log KD α1A [1, 5]: −8.57 ± 0.06; Log KD α1D site 1 ([2]; high-affinity component of two-component curve, control, used for selectivity): −8.11 ± 0.18; Log KD α1D site 2 ([2]; control): −5.15 ± 0.26; % site 1 α1D [2, 6]: 64.1 ± 4.1% site 1; % site 1 α1D [2, 7]: -8.11 ± 0.18 -5.15 ± 0.26 64.1 ± 4.1% site 1; Selectivity ratio α1B vs α1D [3]: 1.2 fold; Log KD α1B [3, 5]: −8.04 ± 0.04
9 | 9.5 | – | 5.9 | 5.9 | – | 1.6 | – | COc1ccc(NC(=O)N2CCc3c2ccc2ccccc32)cc1N1CCN(C)CC1 [S32212] | Log KD α1A [1, 5]: −5.90 ± 0.06; Log KD α1D (apparent) [2, 10]: −5.69 ± 0.13^app; Log KD α1B (apparent) [3, 10]: −4.92 ± 0.02^app
10 | 41 | 3.72 | – | – | 151 | 138 | 513 | O=C(NC1CCN(CCc2c[nH]c3ccccc23)CC1)c1ccccc1 [Indoramin] | α1A selectivity ([1]; for α1A over the α1B or α1D-adrenoceptors): 40 fold; Selectivity ratio α1B vs α1D [3]: 3.4 fold
